Tests used:
HepG2 [1] = assay: Cytotoxicity against human HepG2 cells assessed as cell growth inhibition at 3.125 to 100 uM incubated for 72 hrs and measured after 2 hrs by microplate reader based WST-1 assay relative to control; format: functional
HeLa [2] = assay: Cytotoxicity against human HeLa cells assessed as cell growth inhibition at 3.125 to 100 uM incubated for 72 hrs and measured after 2 hrs by microplate reader based WST-1 assay relative to control; format: functional
HCT-116 [3] = assay: Cytotoxicity against human HCT116 cells assessed as cell growth inhibition at 3.125 to 100 uM incubated for 72 hrs and measured after 2 hrs by microplate reader based WST-1 assay relative to control; format: functional
MCF7 [4] = assay: Cytotoxicity against human MCF7 cells assessed as cell growth inhibition at 3.125 to 100 uM incubated for 72 hrs and measured after 2 hrs by microplate reader based WST-1 assay relative to control; format: functional
HepG2 [5] = assay: Cytotoxicity against human HepG2 cells assessed as increase in growth inhibition by measuring decrease in cell viability incubated for 72 hrs and measured after 2 hrs by microplate reader based WST-1 assay; format: functional
HeLa [6] = assay: Cytotoxicity against human HeLa cells assessed as increase in growth inhibition by measuring decrease in cell viability incubated for 72 hrs and measured after 2 hrs by microplate reader based WST-1 assay; format: functional; details: hela
HCT-116 [7] = assay: Cytotoxicity against human HCT116 cells assessed as increase in growth inhibition by measuring decrease in cell viability incubated for 72 hrs and measured after 2 hrs by microplate reader based WST-1 assay; format: functional; details: hct-116
MCF7 [8] = assay: Cytotoxicity against human MCF7 cells assessed as increase in growth inhibition by measuring decrease in cell viability incubated for 72 hrs and measured after 2 hrs by microplate reader based WST-1 assay; format: functional
[9] = target: Epidermal growth factor receptor (Homo sapiens, UniProt P00533); assay: Inhibition of EGFR-TK in human MCF7 cells overexpressing EGFR incubated for 18 to 24 hrs by kinase assay; format: cell-based
Chain of Epidermal growth factor receptor (P00533 whole entry): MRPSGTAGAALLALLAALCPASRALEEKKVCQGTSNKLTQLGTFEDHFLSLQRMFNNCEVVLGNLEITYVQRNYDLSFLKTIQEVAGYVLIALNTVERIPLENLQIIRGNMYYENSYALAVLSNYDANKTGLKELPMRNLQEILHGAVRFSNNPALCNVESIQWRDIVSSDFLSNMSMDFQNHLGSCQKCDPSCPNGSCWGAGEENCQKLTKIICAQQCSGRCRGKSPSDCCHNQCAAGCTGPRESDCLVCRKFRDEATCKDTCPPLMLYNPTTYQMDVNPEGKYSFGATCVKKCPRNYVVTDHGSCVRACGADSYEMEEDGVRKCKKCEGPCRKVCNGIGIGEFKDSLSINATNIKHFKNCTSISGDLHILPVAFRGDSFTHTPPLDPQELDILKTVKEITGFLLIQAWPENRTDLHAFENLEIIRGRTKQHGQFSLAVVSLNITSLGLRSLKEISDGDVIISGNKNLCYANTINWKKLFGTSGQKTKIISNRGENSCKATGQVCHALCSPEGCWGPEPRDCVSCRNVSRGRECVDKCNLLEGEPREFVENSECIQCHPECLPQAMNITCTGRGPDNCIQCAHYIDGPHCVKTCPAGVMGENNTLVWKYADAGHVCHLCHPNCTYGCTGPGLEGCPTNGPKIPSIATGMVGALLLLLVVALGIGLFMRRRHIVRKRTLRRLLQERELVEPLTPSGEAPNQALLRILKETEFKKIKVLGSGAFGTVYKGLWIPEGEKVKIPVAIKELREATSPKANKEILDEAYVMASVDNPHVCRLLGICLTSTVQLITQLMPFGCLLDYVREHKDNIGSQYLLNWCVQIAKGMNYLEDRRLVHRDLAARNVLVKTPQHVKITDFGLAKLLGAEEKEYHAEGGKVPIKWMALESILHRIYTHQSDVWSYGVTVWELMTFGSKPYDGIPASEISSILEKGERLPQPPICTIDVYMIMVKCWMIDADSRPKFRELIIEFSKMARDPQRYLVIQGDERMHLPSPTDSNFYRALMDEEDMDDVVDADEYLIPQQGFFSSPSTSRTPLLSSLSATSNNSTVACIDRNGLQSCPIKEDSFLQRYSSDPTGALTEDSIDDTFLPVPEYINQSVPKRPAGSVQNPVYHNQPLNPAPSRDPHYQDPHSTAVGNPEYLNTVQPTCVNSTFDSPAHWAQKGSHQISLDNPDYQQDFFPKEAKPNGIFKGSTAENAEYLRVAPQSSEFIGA

MCF7 [10] = assay: Induction of apoptosis in human MCF7 cells assessed as increase in caspase 3 activation by measuring fold increase in caspase 3 level by fluorescence based solid phase sandwich ELISA; format: functional
MCF7 [11] = assay: Induction of apoptosis in human MCF7 cells assessed as increase in caspase 9 activation by measuring fold increase in caspase 9 level by fluorescence based solid phase sandwich ELISA; format: functional
MCF7 [12] = assay: Cell cycle arrest in human MCF7 cells assessed as accumulation at G0/G1 phase at IC50 after 24 hrs by propidium iodide staining based FACS analysis (reference value: 67.39%); format: functional
MCF7 [13] = assay: Cell cycle arrest in human MCF7 cells assessed as accumulation at S phase at IC50 after 24 hrs by propidium iodide staining based FACS analysis (reference value: 27.13%); format: functional
MCF7 [14] = assay: Cell cycle arrest in human MCF7 cells assessed as accumulation at G2/M phase at IC50 after 24 hrs by propidium iodide staining based FACS analysis (reference value: 4.82%); format: functional
MCF7 [15] = assay: Cell cycle arrest in human MCF7 cells assessed as accumulation at pre G1/apoptotic phase at IC50 after 24 hrs by propidium iodide staining based FACS analysis (reference value: 0.66%); format: functional
MCF7 [16] = assay: Induction of apoptosis in human MCF7 cells after 24 hrs by Annexin V-FITC/propidium iodide staining-based FACS analysis; format: functional, cell-based
MCF7 [17] = assay: Induction of apoptosis in human MCF7 cells assessed as viable cells after 24 hrs by Annexin V-FITC/propidium iodide staining-based FACS analysis (reference value: 99.34%); format: functional
MCF7 [18] = assay: Induction of apoptosis in human MCF7 cells assessed as early apoptotic cells after 24 hrs by Annexin V-FITC/propidium iodide staining-based FACS analysis (reference value: 0.29%); format: functional
MCF7 [19] = assay: Induction of apoptosis in human MCF7 cells assessed as late apoptotic cells after 24 hrs by Annexin V-FITC/propidium iodide staining-based FACS analysis (reference value: 0.22%); format: functional
MCF7 [20] = assay: Induction of apoptosis in human MCF7 cells assessed as necrotic cells after 24 hrs by Annexin V-FITC/propidium iodide staining-based FACS analysis (reference value: 0.15%); format: functional
DNA topoisomerase II [21] = target: T1, DNA topoisomerase II (Homo sapiens, UniProt P11388+Q02880); assay: Inhibition of DNA topoisomerase 2 in human MCF7 cells at 25 uM incubated for 18 to 24 hrs by kinase assay relative to control; format: cell-based
DNA topoisomerase II [22] = target: T1, DNA topoisomerase II; assay: Inhibition of DNA topoisomerase 2 in human MCF7 cells at 1 uM incubated for 18 to 24 hrs by kinase assay relative to control; format: cell-based
DNA topoisomerase II [23] = target: T1, DNA topoisomerase II; assay: Inhibition of DNA topoisomerase 2 in human MCF7 cells at 0.2 uM incubated for 18 to 24 hrs by kinase assay relative to control; format: cell-based
DNA topoisomerase II [24] = target: T1, DNA topoisomerase II; assay: Inhibition of DNA topoisomerase 2 in human MCF7 cells incubated for 18 to 24 hrs by kinase assay; format: cell-based
DNA topoisomerase II [25] = target: T1, DNA topoisomerase II; assay: Inhibition of DNA topoisomerase 2 in human MCF7 cells at 5 uM incubated for 18 to 24 hrs by kinase assay relative to control; format: cell-based
HeLa [26] = assay: Induction of apoptosis in human HeLa cells assessed as increase in caspase 3 activation by measuring fold increase in caspase 3 level by fluorescence based solid phase sandwich ELISA; format: functional
DNA topoisomerase II [27] = target: T1, DNA topoisomerase II; assay: Inhibition of DNA topoisomerase 2 in human HeLa cells at 1 uM incubated for 18 to 24 hrs by kinase assay relative to control; format: cell-based
DNA topoisomerase II [28] = target: T1, DNA topoisomerase II; assay: Inhibition of DNA topoisomerase 2 in human HeLa cells at 0.2 uM incubated for 18 to 24 hrs by kinase assay relative to control; format: cell-based
DNA topoisomerase II [29] = target: T1, DNA topoisomerase II; assay: Inhibition of DNA topoisomerase 2 in human HeLa cells incubated for 18 to 24 hrs by kinase assay; format: cell-based
[30] = Homo sapiens, MCF7, read-out: IC50

## Clc1ccc(COC(c2cccs2)c2cc3ccccc3nc2Cl)cc1 (stereo not drawn)
HepG2 [1]
  growth inhibition (GI): <10%
HeLa [2]
  growth inhibition (GI): 30.41%
HCT-116 [3]
  growth inhibition (GI): <10%
MCF7 [4]
  growth inhibition (GI): 47.94%
HepG2 [5]; hepg2
  IC50: Not Active
HeLa [6]
  IC50: Not Active
HCT-116 [7]
  IC50: Not Active
MCF7 [8]; [30]
  IC50: 28.3 µM
[9]
  IC50: 3.66 µM
MCF7 [10]
  fold change (FC): 33.7
MCF7 [11]
  fold change (FC): 29
MCF7 [12]
  Activity: 44.28%
MCF7 [13]
  Activity: 15.35%
MCF7 [14]
  Activity: 23.14%
MCF7 [15]
  Activity: 17.05%
MCF7 [16]
  Activity: Dose-dependent effect
MCF7 [17]
  Activity: 82.72%
MCF7 [18]
  Activity: 6.69%
MCF7 [19]
  Activity: 8.67%
MCF7 [20]
  Activity: 1.6%
DNA topoisomerase II [21]
  inhibition: 93.2%
DNA topoisomerase II [22]
  inhibition: 63.3%
DNA topoisomerase II [23]
  inhibition: 36.3%
DNA topoisomerase II [24]
  IC50: 0.44 µM
DNA topoisomerase II [25]
  inhibition: 84.7%

## COc1cc(-c2cc(COC(c3cccs3)c3cc4ccccc4nc3Cl)on2)cc(OC)c1OC (stereo not drawn)
HepG2 [1]
  growth inhibition (GI): 14.57%
HeLa [2]
  growth inhibition (GI): <10%
HCT-116 [3]
  growth inhibition (GI): <10%
MCF7 [4]
  growth inhibition (GI): <10%

## Cc1ccc(-n2cc(COC(c3cccs3)c3cc4ccccc4nc3Cl)nn2)cc1 (stereo not drawn)
HepG2 [1]
  growth inhibition (GI): 18.78%
HeLa [2]
  growth inhibition (GI): <10%
HCT-116 [3]
  growth inhibition (GI): 13.03%
MCF7 [4]
  growth inhibition (GI): <10%

## CNC(=O)c1cc(Oc2ccc(NC(=O)Nc3ccc(Cl)c(C(F)(F)F)c3)cc2)ccn1 [SORAFENIB]
HeLa [26]
  fold change (FC): 35.5
MCF7 [10]
  fold change (FC): 34.2

## CC[C@@]1(O)C(=O)OCc2c1cc1n(c2=O)Cc2cc3c(CN(C)C)c(O)ccc3nc2-1 [TOPOTECAN]
DNA topoisomerase II [27]
  inhibition: 66.5%
DNA topoisomerase II [28]
  inhibition: 32%
DNA topoisomerase II [29]
  IC50: 0.73 µM
DNA topoisomerase II [21]
  inhibition: 92.8%
DNA topoisomerase II [24]
  IC50: 0.48 µM
DNA topoisomerase II [25]
  inhibition: 85.6%

## FC(F)(F)c1ccc(-n2cc(COC(c3cccs3)c3cc4ccccc4nc3Cl)nn2)cc1 (stereo not drawn)
HepG2 [1]
  growth inhibition (GI): <10%
HeLa [2]
  growth inhibition (GI): <10%
HCT-116 [3]
  growth inhibition (GI): 35.86%
MCF7 [4]
  growth inhibition (GI): <10%

## Cc1cc(C)cc(-c2cc(COC(c3cccs3)c3cc4ccccc4nc3Cl)on2)c1 (stereo not drawn)
HepG2 [1]
  growth inhibition (GI): <10%
HeLa [2]
  growth inhibition (GI): <10%
HCT-116 [3]
  growth inhibition (GI): <10%
MCF7 [4]
  growth inhibition (GI): <10%

## O=[N+]([O-])c1ccc(-n2cc(COC(c3cccs3)c3cc4ccccc4nc3Cl)nn2)cc1 (stereo not drawn)
HepG2 [1]
  growth inhibition (GI): <10%
HeLa [2]
  growth inhibition (GI): <10%
HCT-116 [3]
  growth inhibition (GI): <10%
MCF7 [4]
  growth inhibition (GI): <10%

## COc1ccc(-c2cc(COC(c3cccs3)c3cc4ccccc4nc3Cl)on2)cc1OC (stereo not drawn)
HepG2 [1]
  growth inhibition (GI): <10%
HeLa [2]
  growth inhibition (GI): <10%
HCT-116 [3]
  growth inhibition (GI): <10%
MCF7 [4]
  growth inhibition (GI): <10%

## Clc1nc2ccccc2cc1C(OCc1ccccc1)c1cccs1 (stereo not drawn)
HepG2 [1]
  growth inhibition (GI): <10%
HeLa [2]
  growth inhibition (GI): <10%
HCT-116 [3]
  growth inhibition (GI): <10%
MCF7 [4]
  growth inhibition (GI): 45.63%
HepG2 [5]; hepg2
  IC50: Not Active
HeLa [6]
  IC50: Not Active
HCT-116 [7]
  IC50: Not Active
MCF7 [8]; [30]
  IC50: 108 µM

## Oc1ccc(-c2cc(COC(c3cccs3)c3cc4ccccc4nc3Cl)on2)cc1 (stereo not drawn)
HepG2 [1]
  growth inhibition (GI): 64.51%
HeLa [2]
  growth inhibition (GI): <10%
HCT-116 [3]
  growth inhibition (GI): 14.27%
MCF7 [4]
  growth inhibition (GI): <10%
HepG2 [5]; Homo sapiens, HepG2, read-out: IC50
  IC50: 178 µM
HeLa [6]
  IC50: Not Active
HCT-116 [7]
  IC50: Not Active
MCF7 [8]; mcf7
  IC50: Not Active

Source: ChEMBL document CHEMBL4396926, “Design, Synthesis and Anticancer Evaluation of New Substituted Thiophene-Quinoline Derivatives” (Bioorg Med Chem, 2019)
